Measurements: patent US11311559B2, “Compositions and methods for enhanced delivery of antiviral agents” (POVIVA CORP., priority 2020, dated 2022)

Assay: Plasma exposure after oral administration of formulations in rats (LC-MS/MS, WinNonlin)
Protocol: In this study, the exposure and distribution of darunavir and efavirenz were evaluated following oral administration in male Sprague-Dawley rats. Four cohorts of 10 rats each were used in this study. The first cohort involved darunavir using the disclosed formulations and the second cohort darunavir in a control formulation. The third cohort involved efavirenz using the disclosed formulations and the fourth cohort efavirenz in a control formulation.
Formulations were administered orally (PO) at 10 mg/kg of darunavir or efavirenz. Following dosing, blood, urine and fecal samples were collected up to 8-hour post dose (groups 1, 3, 5, and 7) or 24-hour post dose (groups 2, 4, 6, and 8). Brain tissue was collected at 8 hours or 24 hours, following the 8 hour or 24-hour urine and feces sample collection. Plasma, urine, feces, and brain tissue concentrations of the analytes were determined by LC-MS/MS. Plasma pharmacokinetic parameters were determined using WinNonlin (v8.0) software.
Plasma, urine, feces, and brain tissue samples were extracted and analyzed using the methods described as follows.
Analytical stock solutions (1.00 mg/mL of the free drug) were prepared in DMSO. Sample Homogenization Brain tissue and feces samples were homogenized with a Virsonic 100 ultrasonic homogenizer. Each brain tissue sample was first weighed, and then an appropriate volume of 20:80 methanol:water was added to make a 2 mL/gram sample. Samples were then homogenized on ice, and stored frozen until analysis. Feces samples were homogenized with 20:80 MeOH:water (8 mL/gram of tissue) prior to extraction. Standard Preparation (Plasma, Urine, and Brain) Standards were prepared in rat plasma containing sodium heparin as the anticoagulant, or in blank tissue homogenate. Working solutions were prepared in 50:50 acetonitrile:water. […] Diluted urine samples were quantified against the rat plasma calibration curve. Brain and feces tissue homogenates were quantified against calibration curves prepared in matched blank tissue homogenate.

Compound | plasma concentration of disclosed compositions versus control formulations (disclosed compositions compared with compositions without the bioavailability agents) | average plasma concentration (test animals (disclosed test formulation), at 1 hour) | plasma concentration of disclosed compositions versus control formulations (rat, in vivo)
CC(C)CN(C[C@@H](O)[C@H](Cc1ccccc1)NC(=O)O[C@H]1CO[C@H]2OCC[C@H]21)S(=O)(=O)c1ccc(N)cc1 [darunavir] | double | approximately 306 ng/mL | –
O=C1Nc2ccc(Cl)cc2[C@@](C#CC2CC2)(C(F)(F)F)O1 [efavirenz] | – | – | higher levels
